Read-outs that look alike come from different tables or passages of the source.
Tested on: PKMYT1 (CDK1 pThr14) in FUOV1 cells
Test: PKMYT1 cell-based activity assay, CDK1 pThr14 AlphaLISA in FUOV1 cells
Conditions: read-out: FUOV-1 CDK1 pThr14 IC50
Summary of the method: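 IC50 was derived from AlphaLISA signal (excitation 680 nm, emission 615 nm) for phospho-Thr14 CDK1 in lysates. The detection antibodies were rabbit anti-pThr14 and mouse anti-total CDK1, each at 5 nM. FUOV1 ovarian cells were exposed to compound for 2 hours before lysis.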

Row | IC50 (2 h, 2 h compound incubation) [µM] | IC50 (2 h, 2 hours with compound) [µM] | Compound | also measured
1 | 0.013 | – | Cc1ccc2[nH]ncc2c1-c1nc(-c2cc(F)cnc2NC(C)C)nc(C(N)=O)c1N [Compound 679] | –
2 | 0.228 | – | Cc1ccc2[nH]ncc2c1-c1nc(-c2cc(F)cnc2NCC2(O)CCC2)nc(C(N)=O)c1N [Compound 691] | –
3 | – | 0.056 | Cc1ccc2[nH]ncc2c1-c1nc(-c2cc(F)cnc2N[C@H](C)C(F)(F)F)nc(C(N)=O)c1N [Compound 889] | –
4 | 0.012 | – | Cc1ccc2[nH]ncc2c1-c1nc(-c2cc(F)cnc2N[C@@H]2CCOC2)nc(C(N)=O)c1N [Compound 685] | –
5 | – | 0.047 | Cc1ccc2[nH]ncc2c1-c1nc(-c2cc(F)cnc2N[C@@H]2CC[C@H](O)C2)nc(C(N)=O)c1N [Compound 833] | –
6 | – | 0.074 | Cc1ccc2[nH]ncc2c1-c1nc(-c2ccc(Cl)nc2NC2CCOCC2)nc(C(N)=O)c1N [Compound 803] | –
7 | – | 0.538 | Cc1ccc2[nH]ncc2c1-c1nc(-c2cc(F)cnc2NCCN2CCCC2)nc(C(N)=O)c1N [Compound 853] | –
8 | 0.773 | – | Cc1ccc2[nH]ncc2c1-c1nc(-c2cc(F)cnc2NC2CCC(F)(F)CC2)nc(C(N)=O)c1N [Compound 731] | –
9 | – | 0.022 | Cc1c(F)cc2[nH]ncc2c1-c1nc(-c2cc(F)cnc2N[C@H]2CCOC2)nc(C(N)=O)c1N [Compound 847] | –

The remaining lines, values behind:

Row | Compound | IC50 (2 h, 2 h compound incubation) [µM] | IC50 (2 h, 2 hours with compound) [µM] | also measured
10 | Cc1ccc2[nH]ncc2c1-c1nc(-c2cc(Cl)ccc2Nc2ncccn2)nc(C(N)=O)c1N [Compound 637] | 0.241 | – | –
11 | Cc1ccc2[nH]ncc2c1-c1nc(-c2cc(F)c(F)cc2NCc2cccnc2)nc(C(N)=O)c1N [Compound 496] | 0.465 | – | –
12 | Cc1ccc2[nH]ncc2c1-c1nc(-c2cc(F)cnc2N[C@@H]2C[C@@H]3CC[C@H]2O3)nc(C(N)=O)c1N [Compound 837] | – | – | IC50 (2 hours with compound): 0.022 µM
13 | Cc1ccc2[nH]ncc2c1-c1nc(-c2cccnc2NCCS(C)(=O)=O)nc(C(N)=O)c1N [Compound 543] | 0.931 | – | –
14 | Cc1ccc2[nH]ncc2c1-c1nc(-c2cncnc2NCC(F)(F)F)nc(C(N)=O)c1N [Compound 573] | 0.182 | – | –
15 | Cc1ccc2[nH]ncc2c1-c1nc(-c2ccc(F)cc2NC2CCOCC2)nc(C(N)=O)c1N [Compound 857] | – | 0.075 | –
16 | [2H]C([2H])([2H])c1ccc2[nH]ncc2c1-c1nc(-c2ccc(C3CC3)nc2Nc2nc(C)ncc2F)nc(C(N)=O)c1N [Compound 977] | – | 0.203 | –
17 | Cc1ccc2[nH]ncc2c1-c1nc(-c2ccc(Cl)nc2Nc2ncccn2)nc(C(N)=O)c1N [Compound 759] | 0.033 | – | –
18 | Cc1ccc2[nH]ncc2c1-c1nc(-c2ccc(F)cc2NS(C)(=O)=O)nc(C(N)=O)c1N [Compound 512] | 0.052 | – | –
19 | Cc1ccc2[nH]ncc2c1-c1nc(-c2cc(F)ccc2Nc2ncc(C#N)s2)nc(C(N)=O)c1N [Compound 506] | 0.236 | – | –
20 | Cc1ccc2[nH]ncc2c1-c1cc2c(oc3ccc(NC4CCOCC4)nc32)c(C(N)=O)c1N [Compound 575] | 0.024 | – | –
21 | Cc1ccc(F)c(Nc2ncccc2-c2nc(C(N)=O)c(N)c(-c3c(C)ccc4[nH]ncc34)n2)n1 [Compound 697] | 0.002 | – | –
22 | Cc1ccc2[nH]ncc2c1-c1nc(-c2cnccc2NCC(F)(F)F)nc(C(N)=O)c1N [Compound 520, 5-amino-6-(5-methyl-1H-indazol-4-yl)-2-(4-((2,2,2-trifluoroethyl)amino)pyridin-3-yl)pyrimidine-4-carboxamide] | 0.027 | – | –
23 | Cc1ccc2[nH]ncc2c1-c1nc(-c2ccc(F)cc2Nc2cc(C(C)(C)O)ccn2)nc(C(N)=O)c1N [Compound 633] | 0.998 | – | –
24 | Cc1ccc2[nH]ncc2c1-c1nc(-c2cc(F)c(C#N)cc2NC(C)C(F)(F)F)nc(C(N)=O)c1N (centres unmarked) [Compound 755] | 0.103 | – | –
25 | Cc1ccc(F)c(Nc2ncccc2-c2cc(C(N)=O)c(N)c(-c3c(C)ccc4[nH]ncc34)n2)n1 [Compound 827, 5-amino-2′-((3-fluoro-6-methylpyridin-2-yl)amino)-6-(5-methyl-1H-indazol-4-yl)-[2,3′-bipyridine]-4-carboxamide] | – | 0.012 | –
26 | COc1cncc(Nc2cc(F)ccc2-c2nc(C(N)=O)c(N)c(-c3c(C)ccc4[nH]ncc34)n2)n1 [Compound 696] | 0.069 | – | –

From US20250304537A1 (Repare Therapeutics Inc., priority 2022, published 2025)
